Results from the NIST ThermoML archive (doi:10.1021/je501161t).

Assay: mn = molality of the nth substance listed, in mol/kg
Conditions: 100 kPa, Liquid, Vibrating tube method

CCCCn1cc[n+](C)c1.[Br-] [1-butyl-3-methylimidazolium bromide] + O
mass density [kg/m3]
Conditions | m1 = 0.0317 | m1 = 0.0585 | m1 = 0.073 | m1 = 0.0916 | m1 = 0.114 | m1 = 0.1319 | m1 = 0.1508 | m1 = 0.1706 | m1 = 0.191
288.15 K | 1000.71 | 1002.05 | 1002.78 | 1003.7 | 1004.8 | 1005.69 | 1006.6 | 1007.56 | 1008.55
298.15 K | 998.612 | 999.924 | 1000.63 | 1001.53 | 1002.61 | 1003.47 | 1004.36 | 1005.3 | 1006.26
308.15 K | 995.556 | 996.84 | 997.535 | 998.413 | 999.47 | 1000.32 | 1001.19 | 1002.12 | 1003.07
318.15 K | 991.699 | 992.959 | 993.641 | 994.509 | 995.544 | 996.382 | 997.243 | 998.148 | 999.08

CCCCCCCCn1cc[n+](C)c1.[Br-] [1-methyl-3-octylimidazolium bromide] + O
mass density [kg/m3]
Conditions | m1 = 0.0323 | m1 = 0.0501 | m1 = 0.0722 | m1 = 0.0908 | m1 = 0.1112 | m1 = 0.1301 | m1 = 0.1485 | m1 = 0.1707 | m1 = 0.191
288.15 K | 1000.51 | 1001.28 | 1002.24 | 1003.03 | 1003.9 | 1004.69 | 1005.47 | 1006.39 | 1007.25
298.15 K | 998.383 | 999.121 | 1000.02 | 1000.77 | 1001.6 | 1002.36 | 1003.08 | 1003.99 | 1004.77
308.15 K | 995.284 | 995.975 | 996.827 | 997.539 | 998.314 | 999.033 | 999.725 | 1000.54 | 1001.3
318.15 K | 991.366 | 992.011 | 992.796 | 993.46 | 994.171 | 994.852 | 995.483 | 996.26 | 996.981

CCCCn1cc[n+](C)c1.[Cl-] [1-butyl-3-methylimidazolium chloride] + O
mass density [kg/m3]
Conditions | 288.15 K | 298.15 K | 308.15 K | 318.15 K
m1 = 0.0323 | 999.529 | 997.423 | 994.372 | 990.507
m1 = 0.0586 | 999.875 | 997.736 | 994.658 | 990.768
m1 = 0.0739 | 1000.08 | 997.92 | 994.834 | 990.922
m1 = 0.0899 | 1000.29 | 998.113 | 995.007 | 991.091
m1 = 0.1048 | 1000.49 | 998.297 | 995.182 | 991.26
m1 = 0.1254 | 1000.76 | 998.55 | 995.409 | 991.473
m1 = 0.1437 | 1001.01 | 998.776 | 995.622 | 991.68
m1 = 0.1687 | 1001.33 | 999.091 | 995.913 | 991.942
m1 = 0.1789 | 1001.47 | 999.214 | 996.039 | 992.06
m1 = 0.191 | 1001.63 | 999.373 | 996.185 | 992.216
m1 = 0.2204 | 1002.03 | 999.752 | 996.541 | 992.538

COS(=O)(=O)[O-].Cn1cc[n+](C)c1 [1,3-dimethylimidazolium methylsulfate] + O
mass density [kg/m3]
Conditions | m1 = 0.0333 | m1 = 0.052 | m1 = 0.0743 | m1 = 0.0945 | m1 = 0.1147 | m1 = 0.1309 | m1 = 0.1517 | m1 = 0.1791
288.15 K | 1000.78 | 1001.71 | 1002.81 | 1003.79 | 1004.77 | 1005.55 | 1006.54 | 1007.82
298.15 K | 998.673 | 999.578 | 1000.65 | 1001.61 | 1002.57 | 1003.33 | 1004.3 | 1005.56
308.15 K | 995.619 | 996.505 | 997.553 | 998.494 | 999.435 | 1000.18 | 1001.14 | 1002.38
318.15 K | 991.771 | 992.648 | 993.684 | 994.617 | 995.542 | 996.28 | 997.222 | 998.46

CCOS(=O)(=O)[O-].CCn1cc[n+](C)c1 [1-ethyl-3-methylimidazolium ethyl sulfate] + O
mass density [kg/m3]
Conditions | m1 = 0.0313 | m1 = 0.0499 | m1 = 0.0682 | m1 = 0.0901 | m1 = 0.1095 | m1 = 0.1322
288.15 K | 1000.55 | 1001.4 | 1002.22 | 1003.21 | 1004.08 | 1005.09
298.15 K | 998.448 | 999.27 | 1000.07 | 1001.04 | 1001.87 | 1002.86
308.15 K | 995.398 | 996.212 | 996.995 | 997.93 | 998.762 | 999.712
318.15 K | 991.566 | 992.377 | 993.169 | 994.105 | 994.936 | 995.897

CCCCn1cc[n+](C)c1.F[B-](F)(F)F [1-butyl-3-methylimidazolium tetrafluoroborate] + O
mass density [kg/m3]
Conditions | m1 = 0.0311 | m1 = 0.0527 | m1 = 0.072 | m1 = 0.0904 | m1 = 0.1103 | m1 = 0.1326 | m1 = 0.1525 | m1 = 0.1788
288.15 K | 1000.38 | 1001.26 | 1002.03 | 1002.76 | 1003.54 | 1004.4 | 1005.17 | 1006.16
298.15 K | 998.274 | 999.116 | 999.86 | 1000.56 | 1001.31 | 1002.13 | 1002.86 | 1003.82
308.15 K | 995.194 | 995.999 | 996.713 | 997.385 | 998.11 | 998.921 | 999.635 | 1000.58
318.15 K | 991.332 | 992.114 | 992.809 | 993.467 | 994.171 | 994.948 | 995.643 | 996.555

CCCCCCn1cc[n+](C)c1.[Br-] [3-hexyl-1-methyl-1H-imidazolium bromide] + O
mass density [kg/m3]
Conditions | m1 = 0.0314 | m1 = 0.0515 | m1 = 0.0703 | m1 = 0.0881 | m1 = 0.1098 | m1 = 0.131 | m1 = 0.1505 | m1 = 0.1711 | m1 = 0.1903
288.15 K | 1000.58 | 1001.52 | 1002.4 | 1003.23 | 1004.23 | 1005.18 | 1006.08 | 1007 | 1007.87
298.15 K | 998.466 | 999.368 | 1000.21 | 1001 | 1001.96 | 1002.88 | 1003.74 | 1004.64 | 1005.47
308.15 K | 995.404 | 996.284 | 997.097 | 997.858 | 998.787 | 999.688 | 1000.5 | 1001.4 | 1002.2
318.15 K | 991.535 | 992.389 | 993.185 | 993.932 | 994.837 | 995.704 | 996.521 | 997.358 | 998.139
